Measurements as given in US11781149B2, “Systems and methods for control of gene expression” (TRUSTEES OF BOSTON UNIVERSITY, priority 2018, dated 2023).

T1: syntrophin PDZ domain (Mus musculus, UniProt Q61234)
T1 construct: syn PDZ1; made in house; host or cells: E. coli BL-21 Rosetta (DE3)pLysS, pMAL-c5X vector
T1 sequence (Q61234 77-171): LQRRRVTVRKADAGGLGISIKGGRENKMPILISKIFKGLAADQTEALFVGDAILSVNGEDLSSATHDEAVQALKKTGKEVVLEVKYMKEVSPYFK


Experiments:
erbin PDZ domain = biological target: T2, erbin PDZ domain (Homo sapiens, UniProt Q96RT1, V1340R); test: Fluorescence anisotropy PDZ-ligand competition binding, erbin; parameters: key to Erb Kd (μM), PDZ affinity (Kp): nb indicates no binding; conditions: for Kd: read-out: Erb Kd (μM), PDZ affinity (Kp)
T2 construct: made in house; host or cells: E. coli BL-21 Rosetta (DE3)pLysS, pMAL-c5X vector
Procedure: (§1) Probes were generated by annealing an unlabeled top oligo to a labeled bottom oligo in a 2:1 ratio, while binding competitor oligos were generated using unlabeled top and bottom oligos mixed at equimolar ratios. For PDZ binding experiments, fluorescein-labeled peptide probe (ordered from Selleckhem) used for PDZ binding measurements contained the sequence VKESLV* (SEQ ID NO: 6), where the N-terminus was labeled with a FITC conjugate. Probe concentration was assessed by measuring Abs490. Competitor peptides were purified as MBP-ZF43-8 fusions (see e.g., FIG. 5A-FIG. 5B, FIG. 7A-FIG. 7B).
(§2) All assays were conducted in 20 mM Tris, pH 7.5, 100 mM […], 50 μM ZnCl2 buffer at 25° C. Proteins, probes, and competitor oligos were added to a final volume of 300 μL. Probes were used at 10 nM in all experiments. For complex assembly experiments (FIG. 1C), indicated concentrations of MBP-ZF43-8 harboring a VSKESLV* ligand (SEQ ID NO: 120) (see e.g., FIG. 5A-FIG. 5B, FIG. 7A-FIG. 7B) were titrated against 5 μM concentrations of clamp. Mixtures were allowed to equilibrate at 25° C. for 10 min in Costar black 96-well plates prior to reading. Fluorescence anisotropy (FA) measurements were made at 494 nm using a SpectraMax M5 (Molecular Devices) fluorescence plate reader. For all measurements, anisotropy (r) was calculated using the following equation, wherein I∥ and I⊥ are parallel and perpendicular fluorescence, respectively:
(§3) Fraction of bound probe was calculated using the following equation, wherein rbound and rfree are the anisotropy values for fully bound and fully unbound probe, respectively:
(§4) Each of these values was measured independently of binding curves with either a 100× excess or absence of ZF (in the case of ZF-oligo binding) or PDZ (in the case of PDZ-ligand binding). Q is the ratio of total fluorescence (measured at 454 nm) under rbound and rfree conditions. To obtain binding constants for ZF-probe and PDZ-probe interactions, binding data were fit to the following quadratic equation, wherein [P] is the total concentration of either ZF or PDZ, [probe] is the total concentration of the oligo or peptide probe, and Kd is the dissociation constant of the interaction:
(§5) Competition binding curves were calculated by fitting competition binding curves to the following cubic equation, wherein fb is fraction probe bound, [L*T] is the total probe concentration, [RT] and [R] are total and free concentrations of the ZF, respectively, while [LT] and [L] are total and free concentrations of competitor. Kd1 is the affinity for TF and probe, while Kd2 is the affinity between TF and competitor:
(§6) As a first step toward construction of a molecular assembly scheme amenable to modeling, a set of part variants was identified comprising a range of Kt and Kp values, and then in vitro binding experiments were conducted to directly measure their binding affinities (see e.g., FIG. 6, FIG. 7A, FIG. 7B). […] For each ZF, previously described R-to-A ZF backbone mutations were used as affinity variants (see e.g., Khalil et al., Cell. 150, 647-658 2012). DBM affinity series (DBM1, DBM2, etc.) for both ZFs by were also generated by systematically mutating nucleotides both in the core and directly flanking the core 9-bp recognition sequence (ZF 1: a[…]c (SEQ ID NO: 99); ZF2: a[…]c (SEQ ID NO: 102)). Similarly, PDZ-ligand affinities were measured for two domains (syntrophin ‘syn’ and erbin ‘erb’) and their respective partner ligands. For each pair, ligands of various affinities were obtained from published reports (S1, S2, . . .; E1, E2, . . . )12, 13 (see e.g., FIG. 7A, FIG. 7B). Altogether, this yielded a set of component interactions consisting of 15 ZF-DNA and 13 PDZ-ligand pairs with in vitro-measured values ranging from mid μM to low nM, permitting broad, tunable control of Kt and Kp.
(§7) PDZ-ligand binding constants were measured in vitro by fluorescence anisotropy. Recombinant proteins were purified as described herein. […]

syntrophin PDZ domain = biological target: T1, syntrophin PDZ domain; test: Fluorescence anisotropy PDZ-ligand binding, syntrophin, direct and competition; parameters: key to Syn Kd (μM), PDZ affinity (Kp): nb indicates no binding; conditions: for Kd: read-out: Syn Kd (μM), PDZ affinity (Kp)
Procedure: as §1, §2, §3, §4, §5, §6, §7

[1] = tested on: DBM oligo probe (FITC labeled); test: In vitro complex assembly: synTF titration of DBM oligo probe with or without clamp (fluorescence anisotropy); type: binding
Source text: FIG. 1A-FIG. 1E is a series of graphs and schematics showing the design scheme for assembly-mediated regulatory control of synthetic gene circuits. (FIG. 1A) Nodes in cellular networks use one-to-one regulatory interactions to execute simple computation-al tasks (top); cooperative interactions within multivalent assemblies enable complex, non-linear signal processing (bottom). (FIG. 1B) Design of synthetic TF regulatory assemblies. Complexes are built from interaction domains (ZF and PDZ) and their respective binding partners (DBM and PDZ ligand). Clamp-mediated synTF complex-formation (TA, transcriptional activator domain drives coding sequence transcription). Interaction affinities (Kt and Kp) and the number of repeated complex units (nc) determine thermodynamics of assembly. (FIG. 1C) In vitro assembly of purified cooperative complex components. Fluorescence anisotropy for synTF titration of DBM oligo probe ([…]) and converted to fraction probe bound (Nb, synTFs with binding-deficient PDZ ligand mutants; nc, number of PDZ domains per clamp and DBMs probe). Points represent mean values for three measurements±SE. (FIG. 1D) Testing in vivo complex assembly in yeast using a synthetic gene circuit (GFP output). All genes are chromosomally-integrated (left; see e.g., Table 4). Small molecule-inducible expression systems (ncTET and ncZEV) control intracellular expression levels (see e.g., FIG. 8A, FIG. 8B) of synTF (induced by ATc, 2-500 ng/mL) and clamp (EST, 0.05-12.5 nM), respectively. Adjusting molecular features of assembly (Kt, Kp, nc) tunes overall circuit transfer function (right). (FIG. 1E) Parameterization of thermodynamic complex assembly model. Dose response data for circuit configurations with various Kt, Kp, nc values were fit to a thermodynamic model (see e.g., FIG. 10, FIG. 11); regression plot showing residual from fit are shown at the right. MAE, mean absolute error.
Thus, synTF binding cooperativity is enhanced by the clamp and scales in magnitude with complex size.
as §2, with “For complex assembly experiments (FIG. 1C), indicated concentrations of MBP-ZF43-8 harboring a VSKESLV* ligand (SEQ ID NO: 120) (see e.g., FIG. 5A-FIG. 5B, FIG. 7A-FIG. 7B) were titrated against 5 μM concentrations of clamp.” left out
Species used in the binding assay are described in FIG. 5A and FIG. 5B, and descriptions for protein purification and the binding assay are described elsewhere herein. […]

[2] = tested on: HEK293FT reporter cell line; test: Clamp assembly-mediated transcriptional activation, mCherry reporter by flow cytometry; type: cell-based; conditions: transfected into HEK293FT reporter line, 4 tandem DBMs, pMinCMV
Source text: In the work in yeast, clamp-dependent assembly was initially based on the ability of a zinc finger-based synthetic transcription factor (synTF) and clamp to induce higher reporter activation when co-expressed. To test the possibility that assembly-mediated gene expression also works in mammalian cells, a similar approach was taken. Expression plasmids were generated for synTF (sequence descriptions in Example 7) and a 2-unit (nc=2) clamp (sequence description in Example 7), both driven by a strong UBC promoter (pUBC, Ubiquitin C promoter). A corresponding HEK293FT reporter cell line was generated by lentiviral transduction of a synTF-responsive reporter construct, composed of 4 tandem 20-bp DNA-binding motifs (DBMs) upstream of a minimal CMV promoter (pMinCMV) driving expression of an mCherry fluorescent protein.
Different combinations of the synTF and clamp expression plasmids were transfected into the HEK293FT reporter line, and mCherry reporter expression was assayed using flow cytometry (see e.g., FIG. 19).

T2 sequence (Q96RT1 with tags, fused parts or gaps V1340R): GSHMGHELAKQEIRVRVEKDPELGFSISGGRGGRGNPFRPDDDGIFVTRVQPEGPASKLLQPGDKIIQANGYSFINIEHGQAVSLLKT

Row | Molecule | Erb Kd (μM), PDZ affinity (Kp) (erbin PDZ domain) | Kd (syntrophin PDZ domain) | Kd (erbin PDZ domain) | further results
1 | IRETII | nb | 0.062 µM | – | –
2 | IRETIL | nb | 0.18 µM | – | –
3 | PVDSWV | – | 1.57 µM | 0.42 µM | –
4 | WLKTWV | – | – | 0.33 µM | Syn Kd (μM), PDZ affinity (Kp) (syntrophin PDZ domain): nb
5 | IRWTIV | – | 0.49 µM | 1.73 µM | –
6 | VKEALV | nb | 27.3 µM | – | –
7 | VKESLV | – | 1.97 µM | 5.71 µM | –
8 | VKEAAA | nb | – | – | Syn Kd (μM), PDZ affinity (Kp) (syntrophin PDZ domain): nb
9 | IRETIV | – | 0.88 µM | 3.46 µM | –
10 | HLETFF | nb | 43.2 µM | – | –
11 | WLVTWV | – | – | 0.1 µM | Syn Kd (μM), PDZ affinity (Kp) (syntrophin PDZ domain): nb
12 | synTF: MBP-ZF43-8 fusion harboring a VKESLV-type syntrophin PDZ ligand, titrated against DBM oligo probe (protein, left off: large carriers, MBP-ZF43-8 fusion harboring a VKESLV-type syntrophin PDZ ligand, titrated against DBM oligo probe) GEAPFQCRICMANFSRQDRLDRHTRTHTGEKPFQCRICMANFSQKEHLAGHLRTHTGEKPFQCRICMANFSRRDNLNRHLKTHLRGSGSGVKESLV | – | – | – | cooperativity (nH) ([1]; nc=2 probe, two-PDZ clamp added (2 μM)): 1.81; cooperativity (nH) ([1]; nc=2 probe, without clamp): 1.07; EC50 ([1]; nc=2 probe, without clamp, read-out: affinity of synTFs for the probe (EC50)): 210 nM; cooperativity (nH) ([1]; nc=3 probe and three-repeat clamp): 2.55
13 | clamp: SEQ ID NO: 144, 2-unit clamp of α-syntrophin PDZ domains with 3x FLAG tag and NLS (protein) MDYKDHDGDYKDHDIDYKDDDDKMAPKKKRKVVELQRRRVTVRKADAGGLGISIKGGRENKMPILISKIFKGLAADQTEALFVGDAILSVNGEDLSSATHDEAVQALKKTGKEVVLEVKYMKEVSPYFKGSGGSSGSGPGSSGGSGPGSGSSGGSGSGPGSGGSSGPGSETELVELQRRRVTVRKADAGGLGISIKGGRENKMPILISKIFKGLAADQTEALFVGDAILSVNGEDLSSATHDEAVQALKKTGKEVVLEVKYMKEVSPYFKG | – | – | – | mCherry reporter expression [2]: enhancement of reporter activation
